Legend:
Test in all cases: relative viability (nuclei count vs DMSO), 5 days (fraction); higher = more cells survive
Zosuquidar + Lapatinib = compound: O[C@@H](COc1cccc2ncccc12)CN1CCN([C@@H]2c3ccccc3[C@@H]3[C@H](c4ccccc42)C3(F)F)CC1 [Zosuquidar] + CS(=O)(=O)CCNCc1ccc(-c2ccc3ncnc(Nc4ccc(OCc5cccc(F)c5)c(Cl)c4)c3c2)o1 [Lapatinib] (partner 2 µM)
In short: (§1)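 One day after seeding in 1536-well plates, lung cancer cell lines were dosed by pin tool. Dosing was either single-drug or a fixed anchor-drug dose plus five library-drug doses (not always all listed) in √10 steps. After 5 days, nuclei were stained in one fix-and-stain step and counted on 4× images, and relative viability is the nuclei count of treated wells over that of vehicle wells, given as the median of duplicate plates.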

Kobe2602 + Phenformin = compound: C1=CC(=CC=C1NC(=S)NNC2=C(C=C(C=C2[N+](=O)[O-])C(F)(F)F)[N+](=O)[O-])F [Kobe2602] + N=C(N)NC(=N)NCCc1ccccc1 [Phenformin] (partner 250 µM)
In short: as §1

Kobe2602 + Decitabine = compound: C1=CC(=CC=C1NC(=S)NNC2=C(C=C(C=C2[N+](=O)[O-])C(F)(F)F)[N+](=O)[O-])F [Kobe2602] + Nc1ncn([C@H]2C[C@H](O)[C@@H](CO)O2)c(=O)n1 [Decitabine] (partner 2 µM)
In short: as §1

Cabozantinib + Alpelisib = compound: COc1cc2nccc(Oc3ccc(NC(=O)C4(C(=O)Nc5ccc(F)cc5)CC4)cc3)c2cc1OC [Cabozantinib] + Cc1nc(NC(=O)N2CCC[C@H]2C(N)=O)sc1-c1ccnc(C(C)(C)C(F)(F)F)c1 [Alpelisib] (partner 2 µM)
In short: as §1

Row | Cell Line | relative viability (Zosuquidar + Lapatinib; first compound 0.01 µM) | relative viability (Zosuquidar + Lapatinib; first compound 0.03162 µM) | relative viability (Zosuquidar + Lapatinib; first compound 0.1 µM) | relative viability (Zosuquidar + Lapatinib; first compound 0.3162 µM) | relative viability (Zosuquidar + Lapatinib; first compound 1 µM) | relative viability (Kobe2602 + Phenformin; first compound 0.2 µM) | relative viability (Kobe2602 + Phenformin; first compound 0.6325 µM) | relative viability (Kobe2602 + Phenformin; first compound 2 µM) | relative viability (Kobe2602 + Phenformin; first compound 6.325 µM) | relative viability (Kobe2602 + Phenformin; first compound 20 µM) | relative viability (Kobe2602 + Decitabine; first compound 0.2 µM) | relative viability (Kobe2602 + Decitabine; first compound 0.6325 µM) | relative viability (Kobe2602 + Decitabine; first compound 2 µM) | relative viability (Kobe2602 + Decitabine; first compound 6.325 µM) | relative viability (Kobe2602 + Decitabine; first compound 20 µM) | relative viability (Cabozantinib + Alpelisib; first compound 0.02 µM) | relative viability (Cabozantinib + Alpelisib; first compound 0.06325 µM) | relative viability (Cabozantinib + Alpelisib; first compound 0.6325 µM) | relative viability (Cabozantinib + Alpelisib; first compound 2 µM) | relative viability (Cabozantinib + Alpelisib; first compound 0.2 µM)
1 | PC-3 [JPC-3] | 0.449 | 0.429 | 0.401 | 0.433 | 0.447 | 0.489 | 0.508 | 0.525 | 0.464 | 0.502 | 0.856 | 0.895 | 0.84 | 0.754 | 0.787 | 1.02 | 1.16 | 1.06 | 1.04 | –
2 | HARA | 0.806 | 0.69 | 0.676 | 0.932 | 0.879 | 0.468 | 0.506 | 0.465 | 0.467 | 0.478 | 0.566 | 0.591 | 0.5 | 0.537 | 0.499 | 0.878 | 1.05 | 0.788 | 0.84 | 0.639
3 | NCI-H2347 | 0.888 | 0.931 | 0.908 | 1.06 | 0.925 | 0.529 | 0.48 | 0.375 | 0.469 | 0.407 | 0.648 | 0.618 | 0.594 | 0.569 | 0.661 | 1.2 | 1.15 | 0.985 | 0.668 | 1.01
4 | LOU-NH91 | 0.717 | 0.851 | 0.701 | 0.942 | 0.751 | 0.669 | 0.775 | 0.639 | 0.614 | 0.658 | 0.794 | 0.895 | 0.801 | 0.809 | 0.826 | 0.721 | 0.793 | 0.742 | 0.713 | 0.505
5 | LC-2-ad | 0.994 | 1.05 | 0.993 | 0.989 | 0.958 | 0.567 | 0.618 | 0.512 | 0.586 | 0.55 | 0.664 | 0.888 | 0.943 | 0.825 | 0.815 | 0.869 | 0.976 | 0.659 | 0.45 | 0.834
6 | LCLC-97TM1 | 1.07 | 1.13 | – | 1.27 | 0.881 | 0.44 | 0.428 | 0.434 | 0.39 | 0.42 | 0.234 | 0.229 | – | 0.242 | 0.28 | – | 0.259 | 0.284 | 0.297 | 0.264
7 | EKVX | 0.227 | 0.254 | 0.106 | 0.34 | 0.214 | 0.27 | 0.237 | 0.22 | 0.233 | 0.248 | 0.337 | 0.377 | 0.349 | 0.43 | 0.385 | 0.788 | 0.898 | 0.886 | 0.951 | 0.695
8 | NCI-H441 | – | – | – | – | – | 0.801 | 0.81 | 0.876 | 0.814 | 0.903 | 0.224 | 0.258 | 0.224 | 0.232 | 0.27 | – | 0.857 | 0.815 | 0.783 | 0.663
9 | HCC-827 | 0.183 | 0.246 | 0.178 | 0.19 | 0.246 | 0.428 | 0.441 | 0.464 | 0.364 | 0.413 | 0.354 | 0.266 | 0.355 | 0.325 | 0.404 | 0.977 | 1.04 | 0.925 | 0.9 | –
10 | NCI-H838 | 1.04 | 0.765 | 0.858 | 1.18 | 1.06 | 0.549 | 0.71 | 0.574 | 0.577 | 0.554 | 0.474 | 0.478 | 0.46 | 0.472 | 0.527 | 1.06 | 1.08 | 0.933 | 0.886 | 0.989
11 | CAL-12T | 0.716 | 0.84 | – | 0.768 | 0.819 | 0.586 | 0.597 | 0.579 | 0.538 | 0.449 | – | – | – | – | – | 1.23 | 1.27 | 1.16 | 1.18 | 1.19
12 | NCI-H2342 | – | – | – | – | – | 0.658 | 0.607 | 0.563 | 0.553 | 0.662 | 0.846 | 0.749 | 0.68 | 0.658 | 0.728 | – | – | – | – | –
13 | SW 900 | – | – | – | – | – | 0.609 | 0.843 | 0.521 | 0.691 | 0.775 | 0.559 | 0.454 | 0.411 | 0.452 | 0.387 | – | – | – | – | –
14 | IA-LM | – | 0.713 | 0.802 | 1.01 | 0.881 | – | – | – | – | – | – | – | – | – | – | 0.874 | 0.876 | 0.941 | 0.952 | 0.928
15 | EPLC-272H | 0.916 | 0.97 | 0.876 | 1.01 | 1 | 0.313 | 0.32 | 0.31 | 0.323 | 0.294 | 0.341 | 0.381 | 0.411 | 0.319 | 0.395 | 1.02 | 0.944 | 0.949 | 0.847 | 0.727
16 | A-427 | 1.07 | 1.02 | 0.842 | 1.07 | 1.01 | 0.416 | 0.413 | 0.364 | 0.303 | 0.307 | 0.589 | 0.628 | 0.51 | 0.539 | 0.616 | 1.08 | 1.12 | 1.05 | 1.01 | 1.12
17 | NCI-H727 | 0.846 | 0.795 | 0.748 | 1.02 | 0.94 | 0.594 | 0.559 | 0.535 | 0.52 | 0.633 | 0.854 | 0.765 | 0.97 | – | 1.13 | 0.505 | 0.6 | 0.529 | 0.594 | 0.593
18 | NCI-H1993 | 0.965 | 0.908 | 0.751 | 1.04 | 0.79 | 0.51 | 0.453 | 0.503 | 0.501 | 0.515 | 0.598 | 0.583 | 0.537 | 0.535 | 0.593 | 0.71 | 0.719 | 0.713 | 0.798 | 0.662
